“Also recorded” adds a separate entry of the source.
Legend:
Type in all cases: in vivo
[1] = tested on: plant grown from soaked seeds; assay: Test 1: plant weight (aerial portion) after seed soak; settings: for Effect on plant weight vs check: Test 1, seed soak
Description: (§1) Seeds were soaked beginning on T=0 days in solutions of either
(§2) Compound A, imidacloprid, or plain water containing 0.125% (v:v) Tween 20 (check treatment). Compounds were formulated as technical material in water containing 0.125% Tween 20. […] Solution concentrations were 50, 5, 0.5, 0.05 and 0.005 ppm. No evaporation was possible and a significant excess of solution was present to ensure abundant availability of either Compound A or imidacloprid from each solution. On average 20 ml of solution was used to soak groups of seed needed for the seed soaking phase of this test. Seeds were removed from these solutions on T=2 days and planted. Seeds exposed to each unique treatment were germinated as a groups in dedicated shallow plastic cups filled with white sand and containing plain water. Planting of these seeds occurred on T=2 days and the seeds were grown in these shallow cups until T=10 days. Initially 70 ml of water was added to each shallow cup at planting and additional water was added to the cups as needed to keep the sand moist. On T=10 days germinating seedlings were transplanted from the shallow germination cups to individual containers (plastic cups−6 reps per treatment) filled with white sand. Thirty ml of water was used to water the plants following transplanting. After the initial treatment water was added to cups as needed to maintain moisture for plant development. On T=14 days each plant was infested with cotton aphid (CA) Aphis gossypii by transferring a small piece of infested foliage to each test plant. The number of aphids transferred to each plant was uniform based on visual estimation. Plants were rated on T=17 days and T=18 days by counting the number of CA and taking the weight of the each plant. The plant part weighed was the aerial portion of the plant cut off at the surface of the sand. Data were analyzed using analysis of variance with an LSD means separation test (Minitab).
Treatment number 4 experienced some negative effects associated with excess watering during the phase when these plants were being germinated. […] Only four replicate plants were able to be planted to individual growing cups. […] Prior to conducting an analysis of individual treatment effects (factorial analysis of variance, LSD means separation test P=0.05, Minitab) on weight Treatment 4 (Compound A 0.05 ppm) was removed from the analysis because it was judged to be an outlier based on poor growth as described above. The paired imidacloprid rate (0.05 ppm, No. 9) was also removed to keep the data balanced.

[2] = tested on: cotton aphid (CA) Aphis gossypii; assay: Test 1: cotton aphid counts on plants grown from soaked seeds; settings: for Effect on number of aphids vs check: Test 1, seed soak, compound main effect
Description: as §1, §2
Raw data were not homogeneous and so replicate aphid counts were transformed using a square root count+0.5 transformation.

[3] = tested on: Corn (Zea mays 'M2T783') seeds; assay: Test 2: fresh plant weight of corn after seed soak; settings: for Plant Weight % increase: corn seedling weight vs untreated Tween 20 water check, pooled across rates; for Plant Weight (g) Mean: corn, seed soak, pooled across rates 50-0.19 ppm, fresh weight after 13 days; for Tukey's pair-wise comparison of corn plant weight with untreated Tween 20 water check: pooled compound effects, family-wise error rate 0.05
Description: Technical samples of Compound A and imidacloprid were dissolved in water containing 0.125% Tween 20 (V:V). […] The treatment concentrations for Compound A and imidacloprid were 50, 12.5, 3.125, 0.78 and 0.19 ppm. Solutions were prepared in excess and 40 ml was added to 50 ml centrifuge tubes. Corn (Zea mays ‘M2T783’) seeds were inspected for uniform size and undamaged condition and were placed into each centrifuge tube containing specific compound by rate solutions. A treatment of only 0.125% aqueous Tween 20 was used to soak corn seeds and served as the untreated check. Tubes containing seeds and compound solutions were held at room temperature and after […] the seeds were removed from each solution, rinsed and planted into sand in 7.5 cm^2 pots. Tissue paper was placed into the bottom of each pot to keep sand from leaching from the pot. A total of 8 reps of each compound by rate combination were planted for both corn. Eight replicate pots of compound by rate combination were arranged in a completely randomized design on greenhouse carts. This arrangement of treated seeds in pots was placed into the greenhouse and watered over the top as needed. Each cart was equipped with a plastic rack that served to raise the pots up off the cart surface and away from any standing water. The carts were placed in the center of the greenhouse and were rotated 180 degrees daily. After 13 days the carts were moved to the laboratory and the plants were cut off at the soil surface and weighed. Fresh plant weight data were analyzed for homogeneity of variance using Levene's test and further evaluated using one way analysis of variance of individual treatment combinations (compound by rate) and pooled by compound across rates. Means were separated using Tukey's mean separation test with a family-wise error rate of 0.05. All analyses were conducted using Minitab
Corn data were homogeneous based on Levene's test for homgeneity of variance (p=0.116 and p=0.69 respectively). AOV of corn data did indicate a difference (F=3.22, P=0.045, df=2) for pooled compound effects but not for individual treatment effects.

Compound: CS(=O)(=NC#N)C(Cl)c1ccc(C(F)(F)F)nc1 (stereo not drawn) [Compound A]
- Effect on plant weight vs check [1]: significant increase in plant weight
- Plant Weight (g) Rep 1 ([1]; seed soak 0.005 ppm): 2.36 g
- Plant Weight (g) Rep 2 ([1]; seed soak 0.005 ppm): 1.76 g
- Plant Weight (g) Rep 3 ([1]; seed soak 0.005 ppm): 2.09 g
- Plant Weight (g) Rep 4 ([1]; seed soak 0.005 ppm): 2.22 g
- Plant Weight (g) Rep 5 ([1]; seed soak 0.005 ppm): 1.92 g
- Plant Weight (g) Rep 6 ([1]; seed soak 0.005 ppm): 1.93 g
- Plant Weight (g) Rep 1 ([1]; seed soak 0.05 ppm): 0.73 g
- Plant Weight (g) Rep 2 ([1]; seed soak 0.05 ppm): 1.35 g
- Plant Weight (g) Rep 3 ([1]; seed soak 0.05 ppm): 1.2 g
- Plant Weight (g) Rep 4 ([1]; seed soak 0.05 ppm): 1.1 g
- Plant Weight (g) Rep 1 ([1]; seed soak 0.5 ppm): 1.84 g
- Plant Weight (g) Rep 2 ([1]; seed soak 0.5 ppm): 1.88 g
- Plant Weight (g) Rep 3 ([1]; seed soak 0.5 ppm): 2.04 g
- Plant Weight (g) Rep 4 ([1]; seed soak 0.5 ppm): 2.13 g
- Plant Weight (g) Rep 5 ([1]; seed soak 0.5 ppm): 1.96 g
- Plant Weight (g) Rep 6 ([1]; seed soak 0.5 ppm): 1.8 g
- Plant Weight (g) Rep 1 ([1]; seed soak 5 ppm): 2.23 g
- Plant Weight (g) Rep 2 ([1]; seed soak 5 ppm): 2.1 g
- Plant Weight (g) Rep 3 ([1]; seed soak 5 ppm): 1.79 g
- Plant Weight (g) Rep 4 ([1]; seed soak 5 ppm): 2.53 g
- Plant Weight (g) Rep 5 ([1]; seed soak 5 ppm): 1.87 g
- Plant Weight (g) Rep 6 ([1]; seed soak 5 ppm): 1.9 g
- Plant Weight (g) Rep 1 ([1]; seed soak 50 ppm): 2.29 g
- Plant Weight (g) Rep 2 ([1]; seed soak 50 ppm): 2.22 g
- Plant Weight (g) Rep 3 ([1]; seed soak 50 ppm): 2.12 g
- Plant Weight (g) Rep 4 ([1]; seed soak 50 ppm): 1.87 g
- Plant Weight (g) Rep 5 ([1]; seed soak 50 ppm): 1.87 g
- Plant Weight (g) Rep 6 ([1]; seed soak 50 ppm): 2.14 g
- Effect on number of aphids vs check [2]: significantly more aphids in the check treatment; also recorded: reduced the number of aphids on plants
- Aphids (#/plant) Rep 1 ([2]; seed soak 0.005 ppm): 72 #/plant
- Aphids (#/plant) Rep 2 ([2]; seed soak 0.005 ppm): 110 #/plant
- Aphids (#/plant) Rep 3 ([2]; seed soak 0.005 ppm): 35 #/plant
- Aphids (#/plant) Rep 4 ([2]; seed soak 0.005 ppm): 70 #/plant
- Aphids (#/plant) Rep 5 ([2]; seed soak 0.005 ppm): 55 #/plant
- Aphids (#/plant) Rep 6 ([2]; seed soak 0.005 ppm): 15 #/plant
- Aphids (#/plant) Rep 1 ([2]; seed soak 0.05 ppm): 70 #/plant
- Aphids (#/plant) Rep 2 ([2]; seed soak 0.05 ppm): 80 #/plant
- Aphids (#/plant) Rep 3 ([2]; seed soak 0.05 ppm): 60 #/plant
- Aphids (#/plant) Rep 4 ([2]; seed soak 0.05 ppm): 35 #/plant
- Aphids (#/plant) Rep 1 ([2]; seed soak 0.5 ppm): 55 #/plant
- Aphids (#/plant) Rep 2 ([2]; seed soak 0.5 ppm): 75 #/plant
- Aphids (#/plant) Rep 3 ([2]; seed soak 0.5 ppm): 65 #/plant
- Aphids (#/plant) Rep 4 ([2]; seed soak 0.5 ppm): 40 #/plant
- Aphids (#/plant) Rep 5 ([2]; seed soak 0.5 ppm): 45 #/plant
- Aphids (#/plant) Rep 6 ([2]; seed soak 0.5 ppm): 30 #/plant
- Aphids (#/plant) Rep 1 ([2]; seed soak 5 ppm): 23 #/plant
- Aphids (#/plant) Rep 2 ([2]; seed soak 5 ppm): 25 #/plant
- Aphids (#/plant) Rep 3 ([2]; seed soak 5 ppm): 33 #/plant
- Aphids (#/plant) Rep 4 ([2]; seed soak 5 ppm): 65 #/plant
- Aphids (#/plant) Rep 5 ([2]; seed soak 5 ppm): 25 #/plant
- Aphids (#/plant) Rep 6 ([2]; seed soak 5 ppm): 32 #/plant
- Aphids (#/plant) Rep 1 ([2]; seed soak 50 ppm): 4 #/plant
- Aphids (#/plant) Rep 2 ([2]; seed soak 50 ppm): 2 #/plant
- Aphids (#/plant) Rep 3 ([2]; seed soak 50 ppm): 2 #/plant
- Aphids (#/plant) Rep 4 ([2]; seed soak 50 ppm): 12 #/plant
- Aphids (#/plant) Rep 5 ([2]; seed soak 50 ppm): 18 #/plant
- Aphids (#/plant) Rep 6 ([2]; seed soak 50 ppm): 2 #/plant
- Plant Weight % increase [3]: 38.9%
- Plant Weight (g) Mean [3]: 3.162 g
- Tukey's pair-wise comparison of corn plant weight with untreated Tween 20 water check [3]: significantly different; also recorded: significantly increased plant weight

Compound: O=[N+]([O-])NC1=NCCN1Cc1ccc(Cl)nc1 [Imidacloprid, imidacloprid]
- Effect on plant weight vs check [1]: increased plant weights compared to the check plants
- Plant Weight (g) Rep 1 ([1]; seed soak 0.005 ppm): 2.07 g
- Plant Weight (g) Rep 2 ([1]; seed soak 0.005 ppm): 1.59 g
- Plant Weight (g) Rep 3 ([1]; seed soak 0.005 ppm): 2.01 g
- Plant Weight (g) Rep 4 ([1]; seed soak 0.005 ppm): 1.67 g
- Plant Weight (g) Rep 5 ([1]; seed soak 0.005 ppm): 1.86 g
- Plant Weight (g) Rep 6 ([1]; seed soak 0.005 ppm): 1.68 g
- Plant Weight (g) Rep 1 ([1]; seed soak 0.05 ppm): 1.38 g
- Plant Weight (g) Rep 2 ([1]; seed soak 0.05 ppm): 1.37 g
- Plant Weight (g) Rep 3 ([1]; seed soak 0.05 ppm): 1.65 g
- Plant Weight (g) Rep 4 ([1]; seed soak 0.05 ppm): 1.57 g
- Plant Weight (g) Rep 5 ([1]; seed soak 0.05 ppm): 1.72 g
- Plant Weight (g) Rep 6 ([1]; seed soak 0.05 ppm): 1.62 g
- Plant Weight (g) Rep 1 ([1]; seed soak 0.5 ppm): 1.61 g
- Plant Weight (g) Rep 2 ([1]; seed soak 0.5 ppm): 1.82 g
- Plant Weight (g) Rep 3 ([1]; seed soak 0.5 ppm): 1.73 g
- Plant Weight (g) Rep 4 ([1]; seed soak 0.5 ppm): 2.05 g
- Plant Weight (g) Rep 5 ([1]; seed soak 0.5 ppm): 1.66 g
- Plant Weight (g) Rep 6 ([1]; seed soak 0.5 ppm): 1.95 g
- Plant Weight (g) Rep 1 ([1]; seed soak 5 ppm): 1.64 g
- Plant Weight (g) Rep 2 ([1]; seed soak 5 ppm): 1.44 g
- Plant Weight (g) Rep 3 ([1]; seed soak 5 ppm): 1.91 g
- Plant Weight (g) Rep 4 ([1]; seed soak 5 ppm): 1.44 g
- Plant Weight (g) Rep 5 ([1]; seed soak 5 ppm): 1.75 g
- Plant Weight (g) Rep 6 ([1]; seed soak 5 ppm): 2.05 g
- Plant Weight (g) Rep 1 ([1]; seed soak 50 ppm): 1.47 g
- Plant Weight (g) Rep 2 ([1]; seed soak 50 ppm): 2.05 g
- Plant Weight (g) Rep 3 ([1]; seed soak 50 ppm): 1.73 g
- Plant Weight (g) Rep 4 ([1]; seed soak 50 ppm): 1.84 g
- Plant Weight (g) Rep 5 ([1]; seed soak 50 ppm): 2.02 g
- Plant Weight (g) Rep 6 ([1]; seed soak 50 ppm): 1.86 g
- Effect on number of aphids vs check [2]: significantly more aphids in the check treatment; also recorded: reduced the number of aphids on plants
- Aphids (#/plant) Rep 1 ([2]; seed soak 0.005 ppm): 45 #/plant
- Aphids (#/plant) Rep 2 ([2]; seed soak 0.005 ppm): 125 #/plant
- Aphids (#/plant) Rep 3 ([2]; seed soak 0.005 ppm): 55 #/plant
- Aphids (#/plant) Rep 4 ([2]; seed soak 0.005 ppm): 75 #/plant
- Aphids (#/plant) Rep 5 ([2]; seed soak 0.005 ppm): 80 #/plant
- Aphids (#/plant) Rep 6 ([2]; seed soak 0.005 ppm): 35 #/plant
- Aphids (#/plant) Rep 1 ([2]; seed soak 0.05 ppm): 95 #/plant
- Aphids (#/plant) Rep 2 ([2]; seed soak 0.05 ppm): 60 #/plant
- Aphids (#/plant) Rep 3 ([2]; seed soak 0.05 ppm): 65 #/plant
- Aphids (#/plant) Rep 4 ([2]; seed soak 0.05 ppm): 95 #/plant
- Aphids (#/plant) Rep 5 ([2]; seed soak 0.05 ppm): 75 #/plant
- Aphids (#/plant) Rep 6 ([2]; seed soak 0.05 ppm): 50 #/plant
- Aphids (#/plant) Rep 1 ([2]; seed soak 0.5 ppm): 25 #/plant
- Aphids (#/plant) Rep 2 ([2]; seed soak 0.5 ppm): 44 #/plant
- Aphids (#/plant) Rep 3 ([2]; seed soak 0.5 ppm): 43 #/plant
- Aphids (#/plant) Rep 4 ([2]; seed soak 0.5 ppm): 70 #/plant
- Aphids (#/plant) Rep 5 ([2]; seed soak 0.5 ppm): 80 #/plant
- Aphids (#/plant) Rep 6 ([2]; seed soak 0.5 ppm): 30 #/plant
- Aphids (#/plant) Rep 1 ([2]; seed soak 5 ppm): 33 #/plant
- Aphids (#/plant) Rep 2 ([2]; seed soak 5 ppm): 37 #/plant
- Aphids (#/plant) Rep 3 ([2]; seed soak 5 ppm): 17 #/plant
- Aphids (#/plant) Rep 4 ([2]; seed soak 5 ppm): 18 #/plant
- Aphids (#/plant) Rep 5 ([2]; seed soak 5 ppm): 30 #/plant
- Aphids (#/plant) Rep 6 ([2]; seed soak 5 ppm): 34 #/plant
- Aphids (#/plant) Rep 1 ([2]; seed soak 50 ppm): 0 #/plant
- Aphids (#/plant) Rep 2 ([2]; seed soak 50 ppm): 0 #/plant
- Aphids (#/plant) Rep 3 ([2]; seed soak 50 ppm): 4 #/plant
- Aphids (#/plant) Rep 4 ([2]; seed soak 50 ppm): 7 #/plant
- Aphids (#/plant) Rep 5 ([2]; seed soak 50 ppm): 4 #/plant
- Aphids (#/plant) Rep 6 ([2]; seed soak 50 ppm): 1 #/plant
- Plant Weight % increase [3]: 24.8%
- Plant Weight (g) Mean [3]: 2.841 g
- Tukey's pair-wise comparison of corn plant weight with untreated Tween 20 water check [3]: not significantly different

— US20120135866A1, “INCREASING PLANT VIGOR” (DOW AGROSCIENCES LLC, priority 2007, published 2012)
